Data on 10 molecules can be found in ChEMBL document CHEMBL6083203, “Discovery and optimisation of pyrazolo[1,5-a]pyrimidines as aryl hydrocarbon receptor antagonists” (RSC Med Chem, 2024).

One test has as its target T1, Aryl hydrocarbon receptor (Homo sapiens, UniProt P35869).
T1 sequence (P35869 whole entry): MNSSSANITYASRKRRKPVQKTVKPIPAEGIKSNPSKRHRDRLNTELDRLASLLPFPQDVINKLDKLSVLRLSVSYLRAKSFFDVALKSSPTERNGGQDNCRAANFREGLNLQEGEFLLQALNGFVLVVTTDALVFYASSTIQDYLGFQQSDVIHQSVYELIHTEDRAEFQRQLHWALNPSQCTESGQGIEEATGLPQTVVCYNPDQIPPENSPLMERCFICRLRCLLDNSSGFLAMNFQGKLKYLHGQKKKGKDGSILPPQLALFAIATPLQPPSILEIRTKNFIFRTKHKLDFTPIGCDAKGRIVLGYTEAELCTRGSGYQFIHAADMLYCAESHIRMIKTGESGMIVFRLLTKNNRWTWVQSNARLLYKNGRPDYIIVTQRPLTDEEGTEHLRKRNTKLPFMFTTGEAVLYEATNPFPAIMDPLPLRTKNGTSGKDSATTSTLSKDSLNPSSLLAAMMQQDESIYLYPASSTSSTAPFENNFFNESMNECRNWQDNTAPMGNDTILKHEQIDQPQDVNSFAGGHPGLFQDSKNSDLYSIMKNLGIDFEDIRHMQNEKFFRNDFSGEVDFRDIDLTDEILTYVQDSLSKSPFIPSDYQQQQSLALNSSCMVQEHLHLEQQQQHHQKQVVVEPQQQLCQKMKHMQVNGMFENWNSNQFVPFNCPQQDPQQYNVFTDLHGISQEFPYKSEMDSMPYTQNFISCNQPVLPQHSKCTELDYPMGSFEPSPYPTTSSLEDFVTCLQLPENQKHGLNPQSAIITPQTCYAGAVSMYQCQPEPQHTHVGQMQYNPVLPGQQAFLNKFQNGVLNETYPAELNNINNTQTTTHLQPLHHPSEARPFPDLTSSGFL
The settings on record: Huh-7, human, 20 h, read-out: Activity.
Description: Antagonist activity at AHR receptor in human Huh-7 cells transfected with CYP1A1 regulated luciferase reporter gene assessed as inhibition of receptor activation at 25 uM incubated for 20 hrs by dual luciferase assay relative to control
For the molecule `NC(=O)C1CN(C(=O)c2cc(-c3ccc(Cl)cc3)nn2-c2ccccc2)c2ccccc2O1` (configuration not stated), the inhibition at 25 µM was 28%.
In the case of `C=CCn1c(SC(C)C(=O)NC(N)=O)nnc1-c1cc2c(s1)CCC(C(C)(C)C)C2` (configuration not stated), the inhibition at 25 µM was 1.4%.

In the next test the target is T1, Aryl hydrocarbon receptor.
Settings: not given
In the case of `c1ccc(-c2cc(Nc3cnc[nH]3)n3ncc(-c4ccccc4)c3n2)cc1`, 0.121 µM corresponded to half-maximal inhibition (IC50).
On the same count and under the same terms, then `COc1ccccc1-c1cnn2c(NCCOCCO)cc(-c3ccccc3)nc12`, with 0.32 µM; and `CC(C)(C)c1cccc(-c2cnn3c(NCCOCCO)cc(-c4ccccc4)nc23)c1`, with 29.5 µM.
In the case of `OCCOCCNc1cc(-c2ccccc2)nc2c(-c3ccccc3OC(F)(F)F)cnn12`, the IC50 was determined as 0.396 µM.
In the case of `Cc1ccc(-c2cc(NCCOCCO)n3ncc(-c4ccccc4)c3n2)cc1`, the IC50 stood at 0.189 µM.
Take `COC(=O)c1ccccc1-c1cnn2c(NCCOCCO)cc(-c3ccccc3)nc12`: 0.359 µM corresponded to half-maximal inhibition (IC50).
`CS(=O)(=O)Nc1ccccc1-c1cnn2c(NCCOCCO)cc(-c3ccccc3)nc12` returned an IC50 of 0.654 µM.

Another test has as its target T2, Aryl hydrocarbon receptor (Mus musculus, UniProt P30561).
T2 sequence (P30561 whole entry): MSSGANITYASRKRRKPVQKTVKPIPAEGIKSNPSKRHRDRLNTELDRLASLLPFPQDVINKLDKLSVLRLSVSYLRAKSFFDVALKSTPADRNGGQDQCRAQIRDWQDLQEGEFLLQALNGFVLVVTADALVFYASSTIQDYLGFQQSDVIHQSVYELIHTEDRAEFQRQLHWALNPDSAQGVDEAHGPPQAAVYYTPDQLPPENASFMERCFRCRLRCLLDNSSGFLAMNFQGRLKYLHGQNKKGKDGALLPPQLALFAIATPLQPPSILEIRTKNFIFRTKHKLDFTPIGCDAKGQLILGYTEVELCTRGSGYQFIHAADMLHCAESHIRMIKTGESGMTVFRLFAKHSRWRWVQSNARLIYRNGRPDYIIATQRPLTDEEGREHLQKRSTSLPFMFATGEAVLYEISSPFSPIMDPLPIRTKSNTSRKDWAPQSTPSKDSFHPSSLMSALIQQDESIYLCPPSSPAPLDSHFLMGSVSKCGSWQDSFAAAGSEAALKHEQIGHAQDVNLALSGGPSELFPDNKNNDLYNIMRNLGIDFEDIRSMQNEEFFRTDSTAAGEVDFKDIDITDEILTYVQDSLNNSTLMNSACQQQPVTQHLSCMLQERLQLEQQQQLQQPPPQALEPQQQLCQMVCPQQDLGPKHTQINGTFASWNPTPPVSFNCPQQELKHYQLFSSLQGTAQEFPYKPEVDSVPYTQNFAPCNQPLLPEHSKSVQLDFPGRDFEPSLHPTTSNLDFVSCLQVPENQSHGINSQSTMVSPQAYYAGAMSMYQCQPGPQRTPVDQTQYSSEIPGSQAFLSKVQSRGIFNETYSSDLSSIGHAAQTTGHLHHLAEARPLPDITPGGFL
As to the kind of experiment: Antagonist activity at AhR receptor in TCDD-stimulated mouse CD34-positive cell assessed as decrease in CYP1B1 mRNA expression.
Settings: not given
As to `CC(C)n1cnc2c(NCCc3ccc(O)cc3)nc(-c3csc4ccccc34)nc21`, the IC50 is 0.127 µM.

For the next test, the target named is T1, Aryl hydrocarbon receptor. The note with it: Huh-7, human, 20 h, read-out: Activity. This is another data set of the same source.
Description: Antagonist activity at AHR receptor in human Huh-7 cells transfected with CYP1A1 regulated luciferase reporter gene assessed as inhibition of TCDD-induced receptor activation at 25 uM incubated for 20 hrs by dual luciferase assay relative to control
As for `NC(=O)C1CN(C(=O)c2cc(-c3ccc(Cl)cc3)nn2-c2ccccc2)c2ccccc2O1` (configuration not stated), the inhibition at 25 µM amounted to 23.6%.
`C=CCn1c(SC(C)C(=O)NC(N)=O)nnc1-c1cc2c(s1)CCC(C(C)(C)C)C2` (configuration not stated): the inhibition at 25 µM stood at 21%.

In general, IC50 refers to the concentration at which inhibition is half-maximal.
